Patent US9376466B2, “Peptide inhibitors of caspase 2 activation” (The Trustees of Columbia University in the city of New York, priority 2011, dated 2016)
Entries after “also recorded” stand apart in the source; their conditions may differ.

Key:
Type in all cases: cell-based, rat
[1] = system: primary hippocampal neurons; experiment: Cell survival assay, primary hippocampal neurons treated with Aβ1-42; conditions: AFDAFC-Pen1 final concentration 80 nM, survival quantified after 1 day, n=3, FIG. 7
Experimental: Peptide Preparation: AFDAFC (SEQ ID NO: 1) was synthesized by Multiple Peptide Systems (San Diego, Calif.). Lyophilized peptide was resuspended in sterile ddH2O and linked in equimolar amounts with Pen1 (Troy et al. Proc. Natl. Acad. Sci. U.S.A. 93: 5635-5640 (1996)) for a stock concentration of 80 μM. AFDAFC-Pen1 was used at a final concentration of 80 nM.
Embryonic day 18 rat fetuses were removed from CO2-sacrificed pregnant Sprague Dawley rats (Charles River). The hippocampus was dissected out from surrounding tissue and the meninges completely removed. Pooled tissue was mechanically dissociated in a serum-free defined medium. […]
Cell Survival Assay. Hippocampal or sympathetic neuron survival was scored as previously reported (Troy et al., J Neurosci. 17:1911-8, 1997). […] Intact nuclei were quantified using a hemacytometer. Triplicate wells were scored and values reported as mean±SEM. Significance was calculated by Student's t-test. For sympathethic neurons, each culture was scored as numbers of living, phase-bright neurons counted in the same field at various times. Three replicate cultures were assessed for each condition, and data are normalized to numbers of neurons present in each culture at the time of Aβ1-42 addition or NGF deprivation and reported as mean±SEM.

[2] = system: Caspase 2 bound to endogenous RAIDD; experiment: Caspase 2 and RAIDD co-immunoprecipitation in primary hippocampal neurons; conditions: primary hippocampal neurons treated with AFDAFC-Pen1 prior to Aβ1-42; Western blot; FIG. 13
Experimental: Caspase 2 and RAIDD Co-Immunoprecipitation (IP). Mouse IgG magnetized beads (Invitrogen) were pre-coated with a RAIDD antibody (anti-CRADD; Abnova) for 2 hrs at 4° C. on a rotator. 2 μg of antibody was used per 30 μl of beads. Primary rat hippocampal neurons were treated with Aβ1-42 (3 μM) for 1 or 2 hrs. Cell lysates were prepared using CHAPS lysis buffer. 70-120 μg of lysates were loaded onto anti-CRADD pre-coated beads and incubated overnight at 4° C. on a rotator. Following the overnight incubation, the captured proteins were boiled off the beads at 100° C. for 5 mins. The immunoprecipitated samples, along with inputs, were then subjected to Western blotting using affinity purified polyclonal anti-Caspase 2.

[3] = system: Bim; experiment: Western blot of Bim protein in hippocampal neuron cultures; conditions: primary hippocampal neurons treated with AFDAFC-Pen1 prior to Aβ1-42; FIG. 14
Experimental: Cell Culture of primary hippocampal neuron cultures. Neurons were cultured as previously described (Akpan et al., J Neurosci. 31:8894-904, 2011). Briefly, embryonic day 18 rat fetuses were removed from CO2-sacrificed pregnant Sprague Dawley rats (Charles River). The hippocampus was dissected from surrounding tissue and the meninges removed. Pooled hippocampi were mechanically dissociated in a serum-free defined medium. Medium consisted of a 1:1 mixture of Eagle's MEM and Ham's F12 (Invitrogen) supplemented with glucose (6 mg/ml), insulin (25 μg/ml), selenium (30 nM), progesterone (20 nM), transferrin (100 μg/ml), putrescine (60 μg/ml), penicillin (0.5 U/ml), and streptomycin (0.5 μg/ml). Dissociated cells were grown on poly-D-lysine coated plates or 8-well chamber slides. Neurons were cultured for 7 days prior to experimental treatments.
Western Blot. Hippocampal neurons or sympathetic neurons were lysed in CHAPS lysis buffer ([…], 50 mM HEPES, 0.1% CHAPS, protease inhibitor tablet, pH 7.4). Protein concentration was determined using BioRad protein assay reagent (Bio-Rad). Equal amounts of protein were loaded onto 10% or 12% polyacrylamide gels. […] Proteins were detected using either enhanced chemiluminescence (Thermo Scientific) or fluorescence using the Odyssey infrared imaging system (LI-COR Biosciences). The relative densities of immunopositive bands were analyzed using ImageJ.

## AFDAFC-Pen1: Caspase 2 activation inhibitory peptide AFDAFC (SEQ ID NO: 1) conjugated to cell-penetrating peptide Pen1 (RQIKIWFQNRRMKWKK)
[1]
  Aβ-mediated cell death (survival): abrogates Aβ-mediated cell death
[2]
  Aβ1-42-induced binding of Caspase 2 to RAIDD: reduces Aβ1-42-induced binding of Caspase 2 to RAIDD
[3]
  Bim induction elicited by Aβ1-42 (protein level): preventing Bim induction; also recorded: prevents Bim induction
